Measurements reported in EP2813216A1, “Stabilized amorphous ticagrelor” (Zentiva, a.s., priority 2013, dated 2014).

Columns and labels:
[1] = Differential scanning calorimetry (DSC), glass transition temperature; assay type: physicochemical; details: neat substance (not a solid solution)
Procedure: DSC curves were measured with a Pyris 1 (Perkin Elmer) device. The sample charge was 3-4 mg, heating rate 10 °C/min. Nitrogen was used as a carrier gas (20 ml/min).
The products were characterized by XRPD and DSC analysis.
In all cases the Tg values were higher for solid solution of 1:2 ratio than those for 1:1 ratio. Therefore, the 1:2 API to polymer ratio was able to form more physically stable solid solutions. It is known that the physical stability of the solid solution is increased with a higher glass transition temperature (Hancock and Zografi, 1997).

[2] = low solubility, low permeability; cited from earlier work

Row | glass transition temperature (Tg) [1] | SMILES | Biopharmaceutical Classification System (BCS) class [2]
1 | about 46 °C | CCCSc1nc(N[C@@H]2C[C@H]2c2ccc(F)c(F)c2)c2nnn([C@@H]3C[C@H](OCCO)[C@@H](O)[C@H]3O)c2n1 [Amorphous ticagrelor, (1S,2S,3R,5S)-3-[7-[(1R,2S)-2-(3,4-Difluorophenyl)cyclopropylamino]-5-(propylthio)-3H-[1,2,3]triazolo[4,5-d]pyrimidin-3-yl]-5-(2-hydroxyethoxy)cyclopentane-1,2-diol] | 
2 |  | CCCSc1nc(N[C@@H]2C[C@H]2c2ccc(F)c(F)c2)c2nnn([C@@H]3C[C@H](OCCO)[C@@H](O)[C@H]3O)c2n1 [ticagrelor, (1S,2S,3R,5S)-3-[7-[(1R,2S)-2-(3,4-Difluorophenyl)cyclopropylamino]-5-(propylthio)-3H-[1,2,3]triazolo[4,5-d]pyrimidin-3-yl]-5-(2-hydroxyethoxy)cyclopentane-1,2-diol] | class IV
